Results reported in ChEMBL document CHEMBL1201862, “PubChem BioAssay data set” (2004).
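Assay format: 96-well plates, 48-hour exposure. At the GI50, growth is halved.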 Activity calls are given as the source filed them. Cut-off read from the data, not from the text of the source: active = GI50 up to about 1.1 µM and inactive = higher.

What was measured:
Assay in all cases: NCI tumour cell line growth inhibition, 48 h
[1] = test system: BT-549
[2] = test system: EKVX
[3] = test system: HCT-15
[4] = test system: HT-29
[5] = test system: Hs-578T
[6] = test system: M14
[7] = test system: MCF7
[8] = test system: MDA-MB-435
[9] = test system: MDA-N
[10] = test system: Malme-3M
[11] = test system: NCI-H226
[12] = test system: NCI-H23
[13] = test system: NCI-H460
[14] = test system: NCI-H522
[15] = test system: NCI/ADR-RES
[16] = test system: OVCAR-4
[17] = test system: PC-3
[18] = test system: RPMI-8226
[19] = test system: RXF 393
[20] = test system: SK-MEL-28

Compound	GI50 [1]	GI50 [2]	GI50 [3] [µM]	GI50 [4]	GI50 [5]	GI50 [6]	GI50 [7]	GI50 [8]	GI50 [9]	GI50 [10]	GI50 [11]	GI50 [12]	GI50 [13]	GI50 [14]	GI50 [15]	GI50 [16]	GI50 [17]	GI50 [18]	GI50 [19]	GI50 [20]
CC(C)(CN1CCCCC1)C(=O)CC(SCCS(=O)(=O)O)c1ccc(Cl)cc1 (centres undefined)	8.04 µM (inactive)	3.67 µM (inactive)	2.19	3.52 µM (inactive)	3.2 µM (inactive)	3.19 µM (inactive)	3.3 µM (inactive)	3.48 µM (inactive)	2.81 µM (inactive)	5.38 µM (inactive)	12 µM (inactive)	3.88 µM (inactive)	6.41 µM (inactive)	2.51 µM (inactive)	5.97 µM (inactive)	3.84 µM (inactive)	4.44 µM (inactive)	3.31 µM (inactive)	3.1 µM (inactive)	–
CC(C)(C)C1(COC(=O)c2ccc(N)cc2)COC1	54.6 µM (inactive)	39.4 µM (inactive)	63.2	50.1 µM (inactive)	> 100 µM (inactive)	61 µM (inactive)	45 µM (inactive)	53.3 µM (inactive)	66.1 µM (inactive)	89.7 µM (inactive)	> 100 µM (inactive)	66.7 µM (inactive)	48.4 µM (inactive)	47.6 µM (inactive)	58.3 µM (inactive)	32.7 µM (inactive)	47.2 µM (inactive)	58.9 µM (inactive)	72.4 µM (inactive)	> 100 µM (inactive)
CC(=O)c1sc(=N)n(-c2c(C)cccc2C)c1C	> 100 µM (inactive)	> 100 µM (inactive)	> 100	> 100 µM (inactive)	> 100 µM (inactive)	> 100 µM (inactive)	> 100 µM (inactive)	> 100 µM (inactive)	> 100 µM (inactive)	> 100 µM (inactive)	> 100 µM (inactive)	> 100 µM (inactive)	> 100 µM (inactive)	> 100 µM (inactive)	> 100 µM (inactive)	> 100 µM (inactive)	> 100 µM (inactive)	> 100 µM (inactive)	> 100 µM (inactive)	> 100 µM (inactive)
CCCn1c(C23CC4CC(CC(C4)C2)C3)nc2ccc(Cl)cc2c1=O	44.2 µM (inactive)	23.9 µM (inactive)	45.6	24.9 µM (inactive)	63.2 µM (inactive)	26.1 µM (inactive)	23.7 µM (inactive)	36.6 µM (inactive)	33 µM (inactive)	> 100 µM (inactive)	> 100 µM (inactive)	50.5 µM (inactive)	36.1 µM (inactive)	47.2 µM (inactive)	21.9 µM (inactive)	42.2 µM (inactive)	37.1 µM (inactive)	28.7 µM (inactive)	7.11 µM (inactive)	57.5 µM (inactive)
